Measurements published in patent US5399487A, “6-peptidylamino-1-naphthalenesulfonamides useful as fluorogenic proteolytic enzyme substrates” (Haematologic Technologies, Inc., priority 1993, dated 1995).

Experiments:
Experiment in all cases: Fluorogenic enzyme assay (Example 5)
Type in all cases: biochemical
[1] = molecular target: activated protein C (APC) (Homo sapiens, UniProt P04070); design: key to Hydrolysis kinetic constants, APC (symbol b): Slow substrate hydrolysis, no kinetic constants calculated; conditions: for Time (min) for 10% hydrolysis, APC: enzyme 100 nM, substrate 1 μM
Protocol: (§1) Enzyme assays (except factor VIIa assays, see below) were conducted in 20 mM Tris, 150 mM NaCl, pH 7.4 (TBS) at room temperature (22° C.). The final volume for all reaction mixtures was 2.0 ml. Fluorogenic substrates were dissolved in DMSO to a stock concentration of 10 mM. The 10 mM stock solution was diluted in TBS to the final working concentration prior to all assays. Enzyme was added to mixtures containing buffer components and substrate and the initial rate of substrate hydrolysis was measured as the change in fluorescent intensity over time, corresponding to the generation of the particular 6-amino-1-naphthalenesulfonamide fluorophore from the provided substrate. Quantitation of substrate hydrolysis was accomplished by establishing a standard curve from the appropriate fluorescent moiety. Fluorescence was monitored (continuously or discontinuously) using a Perkin Elmer fluorescence spectrophotometer, model MPF-44A, equipped with a standard chart recorder. The fluorophore was detected using monochrometers set at an excitation wavelength of 352 nm and an emission wavelength of 470 nm. Light scattering artifacts were minimized using a 399 nm cut off filter in the emission light beam.
(§2) The kinetic constants of substrate hydrolysis were determined using the non-linear least squares regression analysis program ENZFITTER (Cambridge, UK). This program was used to iteratively fit initial rates of substrate hydrolysis to the Michaelis-Menten equation and the kinetic constants of substrate hydrolysis (Km) and (kcat) were calculated.

[2] = molecular target: urokinase (u-PA) (Homo sapiens, UniProt P00749); conditions: enzyme 100 nM, substrate 1 μM
Protocol: as §1, §2

[3] = molecular target: plasmin (Plm) (Homo sapiens, UniProt P00747); conditions: enzyme 100 nM, substrate 1 μM; for Time (min) for 5% hydrolysis, Plm: footnote b
Protocol: as §1, §2

[4] = molecular target: tissue plasminogen activator (t-PA) (Homo sapiens, UniProt P00750); conditions: enzyme 100 nM, substrate 1 μM; for hydrolysis, t-PA (symbol N.D.): after 24 hrs; for Time (min) for 5% hydrolysis, t-PA: footnote b
Protocol: as §1, §2

[5] = molecular target: T1, thrombin (IIa) (Homo sapiens, UniProt P00734); conditions: for Km / kcat /Km, IIa / kcat, IIa: Table 7; for Time (min) for 10% hydrolysis, IIa: enzyme 100 nM, substrate 1 μM
T1 construct: 0.5 nM human thrombin (IIa)
Protocol: as §1, §2

[6] = molecular target: factor Xa (Homo sapiens, UniProt P00742); conditions: for Km / kcat /Km, Xa / kcat, Xa: Table 7; for Time (min) for 10% hydrolysis, Xa: enzyme 100 nM, substrate 1 μM
Protocol: as §1, §2

Sequence of tissue plasminogen activator (t-PA) (P00750 36-562, species assumed): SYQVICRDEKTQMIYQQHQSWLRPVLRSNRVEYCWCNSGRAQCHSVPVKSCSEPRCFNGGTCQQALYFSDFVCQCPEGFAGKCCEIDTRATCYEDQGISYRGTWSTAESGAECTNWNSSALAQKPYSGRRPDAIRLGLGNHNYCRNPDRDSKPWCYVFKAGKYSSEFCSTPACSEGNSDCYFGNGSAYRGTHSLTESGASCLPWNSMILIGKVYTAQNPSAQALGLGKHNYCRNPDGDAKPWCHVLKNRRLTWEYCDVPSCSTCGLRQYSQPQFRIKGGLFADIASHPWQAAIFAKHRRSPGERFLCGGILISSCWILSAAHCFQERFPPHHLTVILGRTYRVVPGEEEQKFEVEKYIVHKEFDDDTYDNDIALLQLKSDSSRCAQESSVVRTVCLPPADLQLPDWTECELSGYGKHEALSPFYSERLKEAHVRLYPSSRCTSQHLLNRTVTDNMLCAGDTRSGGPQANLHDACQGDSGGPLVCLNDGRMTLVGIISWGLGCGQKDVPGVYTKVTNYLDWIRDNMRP
Sequence of activated protein C (APC) (P04070 212-461 limits assumed): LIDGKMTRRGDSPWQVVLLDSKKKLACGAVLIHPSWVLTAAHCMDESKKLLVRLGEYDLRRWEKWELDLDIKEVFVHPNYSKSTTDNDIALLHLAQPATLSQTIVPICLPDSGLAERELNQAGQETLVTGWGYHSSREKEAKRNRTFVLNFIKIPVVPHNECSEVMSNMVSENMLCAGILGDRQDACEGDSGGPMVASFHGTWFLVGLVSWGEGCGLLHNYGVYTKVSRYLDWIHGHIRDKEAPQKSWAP
Sequence of activated protein C (APC) (P04070 43-197 limits assumed): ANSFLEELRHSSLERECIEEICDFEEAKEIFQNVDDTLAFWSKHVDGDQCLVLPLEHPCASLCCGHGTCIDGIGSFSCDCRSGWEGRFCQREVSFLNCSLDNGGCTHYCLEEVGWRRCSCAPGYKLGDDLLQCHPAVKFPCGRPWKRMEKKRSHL
Sequence of factor Xa (P00742 235-488 limits assumed): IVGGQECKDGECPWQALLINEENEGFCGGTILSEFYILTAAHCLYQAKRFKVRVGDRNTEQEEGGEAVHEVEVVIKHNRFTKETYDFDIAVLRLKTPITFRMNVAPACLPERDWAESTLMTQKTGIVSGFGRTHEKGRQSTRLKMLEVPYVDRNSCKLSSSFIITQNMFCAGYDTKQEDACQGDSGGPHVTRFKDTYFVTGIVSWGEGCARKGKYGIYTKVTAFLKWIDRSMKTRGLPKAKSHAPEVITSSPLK
Sequence of factor Xa (P00742 41-179 limits assumed): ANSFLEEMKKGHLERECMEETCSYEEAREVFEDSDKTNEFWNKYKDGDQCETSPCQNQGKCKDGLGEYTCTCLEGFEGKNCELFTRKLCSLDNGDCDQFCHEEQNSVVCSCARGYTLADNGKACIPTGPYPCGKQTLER
Sequence of plasmin (Plm) (P00747 581-810 limits assumed, species assumed): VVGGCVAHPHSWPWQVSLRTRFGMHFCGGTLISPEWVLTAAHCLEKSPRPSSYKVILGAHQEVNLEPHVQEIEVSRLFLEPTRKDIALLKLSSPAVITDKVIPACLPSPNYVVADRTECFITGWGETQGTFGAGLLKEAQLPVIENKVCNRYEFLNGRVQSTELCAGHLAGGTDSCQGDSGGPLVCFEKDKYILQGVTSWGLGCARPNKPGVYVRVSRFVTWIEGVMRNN
Sequence of plasmin (Plm) (P00747 97-580 limits assumed, species assumed): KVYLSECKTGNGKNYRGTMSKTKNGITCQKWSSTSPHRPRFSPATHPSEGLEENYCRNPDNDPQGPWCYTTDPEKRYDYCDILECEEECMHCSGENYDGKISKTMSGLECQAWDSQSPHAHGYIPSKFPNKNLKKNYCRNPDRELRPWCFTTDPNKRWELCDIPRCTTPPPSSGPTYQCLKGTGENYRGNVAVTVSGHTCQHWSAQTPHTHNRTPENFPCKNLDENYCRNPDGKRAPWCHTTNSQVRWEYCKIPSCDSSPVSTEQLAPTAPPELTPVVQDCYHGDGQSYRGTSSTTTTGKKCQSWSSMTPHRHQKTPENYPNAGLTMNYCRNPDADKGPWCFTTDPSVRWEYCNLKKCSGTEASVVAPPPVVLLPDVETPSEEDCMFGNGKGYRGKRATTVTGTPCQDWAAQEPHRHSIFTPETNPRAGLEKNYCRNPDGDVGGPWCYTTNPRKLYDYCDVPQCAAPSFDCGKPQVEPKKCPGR

Row | Structure (SMILES) | Km ([1]; Table 7) | kcat /Km, APC ([1]; Table 7) | kcat, APC ([1]; Table 7) | Time (min) for 10% hydrolysis, APC [1] | Time (min) for 10% hydrolysis, u-PA [2] | Time (min) for 5% hydrolysis, Plm [3] | hydrolysis, t-PA (symbol N.D.) [4] | Km [5] | kcat /Km, IIa [5] | kcat, IIa [5] | Time (min) for 10% hydrolysis, IIa [5] | Km [6] | kcat /Km, Xa [6] | kcat, Xa [6] | Time (min) for 10% hydrolysis, Xa [6] | Hydrolysis kinetic constants, APC (symbol b) ([1]; Table 7) | Time (min) for 5% hydrolysis, t-PA [4] | Time (min) for 5% hydrolysis, u-PA ([2]; footnote b) | Time (min) for 10% hydrolysis, Plm [3]
1 | Br.CC(C)CNS(=O)(=O)c1cccc2cc(NC(=O)[C@H](CCCNC(=N)N)NC(=O)OCc3ccccc3)ccc12 [(N^α -Z)ArgANSNR1 R2; H; i-C4 H9] | 960 µM | 1670 M⁻¹ s⁻¹ | 1.6 s⁻¹ | 17 min | 200 min | 1620 min | N.D. (Less than 5% hydrolysis after 24 hrs.) | 35.3 µM | 1420 M⁻¹ s⁻¹ | 0.05 s⁻¹ | 25 min | 86.5 µM | 811 M⁻¹ s⁻¹ | 0.07 s⁻¹ | 33 min |  |  |  | 
2 | Br.CNS(=O)(=O)c1cccc2cc(NC(=O)[C@H](CCCNC(=N)N)NC(=O)OCc3ccccc3)ccc12 [(N^α -Z)ArgANSNR1 R2; H; CH3] |  |  |  | 120 min | 660 min | 1620 min |  | 62.5 µM | 640 M⁻¹ s⁻¹ | 0.04 s⁻¹ | 38 min | 160 µM | 714 M⁻¹ s⁻¹ | 0.11 s⁻¹ | 25 min | b | 1280 min |  | 
3 | Br.N=C(N)NCCC[C@H](NC(=O)OCc1ccccc1)C(=O)Nc1ccc2c(S(=O)(=O)NC3CCCCC3)cccc2c1 [(N^α -Z)ArgANSNR1 R2; H; cyclo-C6 H11] | 810 µM | 2470 M⁻¹ s⁻¹ | 0.44 s⁻¹ | 12 min |  |  | N.D. (Less than 5% hydrolysis after 24 hrs.) | 27.9 µM | 1090 M⁻¹ s⁻¹ | 0.03 s⁻¹ | 23 min | 51.8 µM | 633 M⁻¹ s⁻¹ | 0.03 s⁻¹ | 55 min |  |  | 1620 min | 1140 min
4 | Br.CCCCCNS(=O)(=O)c1cccc2cc(NC(=O)[C@H](CCCNC(=N)N)NC(=O)OCc3ccccc3)ccc12 [(N^α -Z)ArgANSNR1 R2; H; C5 H11] | 436 µM | 1830 M⁻¹ s⁻¹ | 0.8 s⁻¹ | 12 min | 43 min |  |  | 41.4 µM | 242 M⁻¹ s⁻¹ | 0.01 s⁻¹ | 30 min | 36.8 µM | 979 M⁻¹ s⁻¹ | 0.04 s⁻¹ | 45 min |  | 1280 min |  | 510 min
